Here are results for 21 compounds from PubChem BioAssay AID977624 (Broad Institute, 2014).

Records with an inconclusive call do not appear. The source made the active and inactive calls.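 The calls were made as follows: active = compound lowering the normal-ribosome reporter at least twice as much as the humanized-ribosome reporter, growth loss under a set limit; inconclusive = no clear call, values can overlap the other calls; inactive = the rest.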

Experiment in all cases: growth inhibition of wild-type GFP E. coli, dose response, h34 mutant RFP, cherry-pick (AID 977624);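 also: wild-type GFP strain co-cultured with humanized h34 ribosome RFP strain in same well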
Assay [1] deals with E. coli wild-type GFP strain growth, fluorescence, 24 h.
Assay [2] deals with E. coli h34 humanized ribosome mutant RFP strain growth, fluorescence, 24 h.
For assay [3], the system named is E. coli mixed culture (wild-type GFP + h34 RFP) total growth, OD600, 24 h. The note with it: E. coli mixed culture (wild-type GFP + h34 RFP), 24 h.

The term AC50 denotes the concentration at which the activity in the assay is half-maximal. As to `Cc1ccc(NS(=O)(=O)c2cc(C(=O)N3CCc4ccccc4C3)ccc2Cl)cc1`, the AC50 in assay [1] is > 100 µM (inactive); in assay [2] it was 32.6 µM. Take `CCn1c(NC(=O)c2nn(C)cc2Br)nc2ccccc21`: the AC50 in assay [1] is > 100 µM (inactive); in assay [3] (measured here: total OD600 growth), 50.3 µM; in assay [2] it was 45.6 µM. Turning to `Cc1nnc2sc(SCC(=O)Nc3ccc(Br)cc3)nn2c1=O`, the AC50 in assay [1] was > 100 µM (inactive); in assay [2] it was above 100 µM. For the compound `CCOc1ccc(OCCn2c(=S)[nH]c3c(N)ncnc32)cc1`, the values for the AC50 in assay [1] and in assay [2] were > 100 µM (inactive) and 17.3 µM, respectively.

With `CCOc1ccccc1NC(=O)c1ccc2ccccc2c1`, the half-maximal activity concentration (AC50) in assay [1] (measured here: GFP wild-type, test 1) is above 100 µM; in assay [3] (measured here: OD600, test 1), 38.3 µM; in assay [2] (E. coli wild-type GFP strain growth, fluorescence, 24 h, measured here: RFP h34 mutant, test 1), above 100 µM. `CC(NCc1ccc(S(N)(=O)=O)cc1)C(=O)Nc1cc([N+](=O)[O-])ccc1Cl` (stereo not drawn): the AC50 in assay [1] is > 100 µM (inactive); in assay [2] it was above 100 µM. For `CCOc1ccccc1N(CC(=O)Nc1ccccc1F)S(=O)(=O)c1ccccc1`, in that order: > 100 µM (inactive) and 52.1 µM. For `CCc1cc2c(=O)n(Cc3ccccc3)c(SC3CCOC3=O)nc2s1` (stereo not drawn), in that order: > 100 µM (inactive) and 46.4 µM. In turn, `O=C(c1ccc(N2CCCCC2)c([N+](=O)[O-])c1)N1CCN(c2ccccn2)CC1` came in with an AC50 in assay [2] above 100 µM. As to `CC(C)Cn1c(=O)c2ccccc2c2ccccc2c1=O`, the AC50 in assay [1] is > 100 µM (inactive); in assay [2] it was 7.44 µM. Compound `O=S(=O)(NCC1CCCO1)c1ccc(-c2ccc(Cl)cc2)cc1` (stereo not drawn) came in with a half-maximal activity concentration (AC50) in assay [2] of 31.8 µM. For the compound `O=C(Nc1ccccc1N1CCN(C(=O)c2ccccc2)CC1)c1ccc([N+](=O)[O-])o1`, the values for the AC50 in assay [1] and in assay [2] were > 100 µM (inactive) and 1.97 µM, respectively. As for `O=C(Nc1ccccc1Cl)c1ccc2c(c1)N(Cc1ccc(F)cc1)C(=O)CS2=O` (stereo not drawn), the AC50 is > 100 µM (inactive) in assay [1] and 50 µM in assay [2]. For `COc1cc(NC(=O)C(c2ccccc2)c2ccccc2)c(C(=O)O)cc1OC`, in that order: > 100 µM (inactive) and 36.4 µM.

With `COc1cc(OC)nc(Oc2ccccc2C(=O)Oc2ccc(C)cc2)n1`, the AC50 in assay [1] is > 100 µM (inactive); in assay [2], 45.6 µM.

For `CCC1=Nc2cc(C(=O)NCc3cccnc3)ccc2Sc2ccc(C)cc21`, the results for the AC50 in assay [1] and in assay [2] were > 100 µM (inactive) and 32.6 µM, respectively. For the compound `O=C(Nc1ccccc1N1CCOCC1)C1CCCCN1S(=O)(=O)c1ccccc1` (stereo not drawn), the AC50 in assay [2] is above 100 µM. Still for that read-out and setting: with `CC(C)n1nnnc1C1c2ccccc2C(=O)N1CCOc1ccccc1` (stereo not drawn) the figure was 5.87 µM. On to `CC(=O)c1c(N2CCOCC2)nc2ccc(Cl)cc2c1-c1ccccc1`, for which the half-maximal activity concentration (AC50) in assay [2] was above 100 µM. With `O=C(Nc1cccc(Cl)c1)c1ccc(S(=O)(=O)NCC2CCCO2)cc1` (stereo not drawn), the AC50 was > 100 µM (inactive) in assay [1] and 1.4 µM in assay [2].

With `COc1cccc(NC(=O)CSc2nc3c(sc4ccccc43)c(=O)n2CCN(C)C)c1`, the AC50 in assay [2] is above 100 µM.
